Reference: US20220356147A1, “COMPOUNDS AND METHODS FOR POTENTIATING COLISTIN ACTIVITY” (University of Notre Dame du Lac, priority 2019, published 2022)
Where two headings read alike, the source gives them in different places.

Experiments:
[1] = test system: A. baumannii 4106 (AB4106); test: Broth microdilution, colistin potentiation; type: cell-based
Experimental: (§1) Broth microdilution method for measurement of colistin potentiation: Bacteria were cultured for 4 to 6 hours in CAMHB and diluted to 1.04×10^6 CFU/mL for AB 4106 and 1.96×10^6 CFU/mL for KP B9 in fresh CAMHB. To aliquots (4 mL) was added compound from stock solutions in DMSO. One aliquot was not dosed to allow measurement of the colistin MIC in the absence of compound. A 1 mL aliquot of each sample was dosed with colistin, and from this 200 μL was dispensed into the first row of a 96-well microtiter plate in which all but the final row of subsequent wells was prefilled with 100 μL of the corresponding compound dosed bacterial suspension The final row was filled with media to act as a sterility control and blank. Row one wells were mixed 6-7 times, then, 100 μL was withdrawn and transferred to row two. Row two wells were mixed 6-7 times followed by a 100 μL transfer from row two to row three. This procedure was used to serially dilute the rest of the rows of the microtiter plate, excluding the last prefilled row, which was used to measure growth in the presence of compound alone. Plates were then sealed with GLAD
(§2) Press'n Seal and incubated under stationary conditions at 37° C. […] MIC values were determined as the minimum concentration required to achieve 90% growth inhibition compared to growth in untreated wells.

AB 4106 = test: Broth microdilution, standalone MIC of compound; type: cell-based, A. baumannii; conditions: Acinetobacter baumannii, 16 h, read-out: MIC of compound alone, AB 4106
Experimental: Broth microdilution method for the determination of minimum inhibitory concentrations: Bacteria were cultured for 4 to 6 hours in CAMHB and subcultured to 1.04×10^6 CFU/mL for AB 4106 and 1.96×10^6 CFU/mL for KP B9 in fresh CAMHB. To aliquots (1 mL) was added compound from stock solutions in DMSO, such that the compound concentration equaled the highest concentration tested. Samples were then dispensed (200 μL) into the first row of a 96-well microtiter plate in which all but the final row of subsequent wells were prefilled with 100 μL of the untreated bacterial subculture. The final row was filled with media to act as a sterility control and blank. Row one wells were mixed 6-7 times, then, 100 μL was withdrawn and transferred to row two. Row two wells were mixed 6-7 times followed by a 100 μL transfer from row two to row three. This procedure was used to serially dilute the rest of the rows of the microtiter plate, excluding the last prefilled row, which was used to measure growth in the absence of compound. Plates were then sealed with GLAD Press'n Seal and incubated under stationary conditions at 37 C. […] MIC values were determined as the minimum concentration required to achieve 90% growth inhibition compared to growth in untreated wells.

AB4106 and KPB9 = test: Initial screen for colistin resistance suppression, statements in words for both strains; type: cell-based, A. baumannii and K. pneumoniae; conditions: compound at 5 μM
Experimental: as §1, §2

[2] = compound at 5 μM, colistin alone 2048 μg/mL

| Structure (SMILES) | Colistin MIC fold reduction, AB 4106 [1, 2] [fold] | MIC (AB 4106; standalone, no colistin) [µM] | Colistin potentiation activity in words, compared to IMD-0354 (AB4106 and KPB9) | Colistin MIC fold reduction, AB 4106 ([1]; compound at 1 μM) [fold] | Colistin MIC fold reduction, AB 4106 ([1]; compound at 3 μM) [fold] | Colistin potentiation activity in words, AB4106 ([1]; compound at 5 μM) | MIC (AB 4106) [µM] |
| --- | --- | --- | --- | --- | --- | --- | --- |
| COc1cc(NC(=O)c2cc(Cl)ccc2O)cc(OC)c1 [Compound 19] | ≤ 16 | > 200 | bereft of activity |  |  |  |  |
| O=C(Nc1cc(C(F)(F)F)cc(C(F)(F)F)c1)c1cc(F)ccc1O [Compound 8] | 1024 | > 200 | essentially equipotent activity to IMD-0354 | 64 | 1024 |  |  |
| O=C(Nc1cc(F)cc(F)c1)c1cc(F)ccc1O [Compound 42] | 256 | 200 |  |  |  |  |  |
| Cc1cc(C)cc(NC(=O)c2ccc(C(F)(F)F)cc2O)c1 [Compound 57, N-(3,5-dimethylphenyl)-2-hydroxy-4-(trifluoromethyl)benzamide] | 256 | > 200 |  |  |  |  |  |
| O=C(Nc1cc(C(F)(F)F)cc(C(F)(F)F)c1)c1ccccc1O [Compound 6] | 512 | > 200 | essentially equipotent activity to IMD-0354 |  | 512 |  |  |
| O=C(Nc1cc(C(F)(F)F)cc(C(F)(F)F)c1)c1ccc(C(F)(F)F)cc1O [Compound 15] | 2048 | > 200 | equipotent activity to IMD-0354 | 128 | 512 |  |  |
| O=C(Nc1cc(Cl)cc(Cl)c1)c1ccc(C(F)(F)F)cc1O [Compound 55, N-(3,5-dichlorophenyl)-2-hydroxy-4-(trifluoromethyl)benzamide] | 2048 | > 200 |  | 256 | 1024 |  |  |
| O=C(Nc1cc(C(F)(F)F)ccc1C(F)(F)F)c1cc(Br)ccc1O [Compound 49] | 2048 | 200 |  | 256 | 1024 |  |  |
| O=C(Nc1cc(Br)cc(Br)c1)c1cc(Br)ccc1O [Compound 47] | 1024 | > 200 |  | 256 | 1024 |  |  |
| Cc1cc(C)cc(NC(=O)c2cc(Cl)ccc2O)c1 [Compound 20] | 1024 | > 200 |  | 16 | 512 |  |  |
| O=C(Nc1cc(Cl)c(Br)c(Cl)c1)c1cc(Cl)ccc1O [Compound 41, N-(4-bromo-3,5-dichlorophenyl)-5-chloro-2-hydroxybenzamide] | 128 | > 200 |  |  |  |  |  |
| O=C(Nc1c(F)cccc1Br)c1cc(Cl)ccc1O [Compound 34] | ≤ 16 | > 200 |  |  |  |  |  |
| O=C(Nc1cc(Br)cc(Br)c1)c1cc(Cl)cc(Cl)c1O [Compound 60, 3,5-dichloro-N-(3,5-dibromophenyl)-2-hydroxybenzamide] | 2048 | 50 |  | 128 | 512 |  |  |
| O=C(Nc1ccc(F)c([N+](=O)[O-])c1)c1cc(Cl)ccc1O [Compound 35, 5-chloro-N-(4-fluoro-3-nitrophenyl)-2-hydroxybenzamide] | 32 | > 200 |  |  |  | Neither compound displayed significant activity |  |
| O=C(Nc1cccc(Cl)c1)c1cc(Cl)ccc1O [Compound 40] | 1024 | > 200 |  | ≤ 16 | 256 |  |  |
| O=C(Nc1cc(F)cc(F)c1)c1cc(Br)ccc1O [Compound 45] | 1024 | > 200 |  | 256 | 512 |  |  |
| O=C(Nc1cc(C(F)(F)F)cc(C(F)(F)F)c1)c1cc(O)cc(Cl)c1 [Compound 3, N-(3,5-bis(trifluoromethyl)phenyl)-3-chloro-5-hydroxybenzamide] |  | > 200 | essentially equipotent activity to IMD-0354 |  |  |  |  |
| O=C(Nc1cc(Cl)cc(Cl)c1)c1cc(Br)ccc1O [Compound 46] | 512 | > 200 |  | 32 | 256 |  |  |

| Structure (SMILES) | Colistin MIC fold reduction, AB 4106 [1, 2] [fold] | MIC (AB 4106; standalone, no colistin) [µM] | Colistin potentiation activity in words, compared to IMD-0354 (AB4106 and KPB9) | Colistin MIC fold reduction, AB 4106 ([1]; compound at 1 μM) [fold] | Colistin MIC fold reduction, AB 4106 ([1]; compound at 3 μM) [fold] | Colistin potentiation activity in words, AB4106 ([1]; compound at 5 μM) | MIC (AB 4106) [µM] |
| --- | --- | --- | --- | --- | --- | --- | --- |
| Cc1ccc(NC(=O)c2cc(Cl)ccc2O)cc1C(F)(F)F [Compound 30] | 32 | > 200 |  |  |  |  |  |
| Cc1cc(C)cc(NC(=O)c2cc(Br)ccc2O)c1 [Compound 48] | 128 | > 200 |  |  |  |  |  |
| Cc1cc(C)cc(NC(=O)c2cc(I)ccc2O)c1 [Compound 53] | 256 | > 200 |  |  |  |  |  |
| Cc1cc(C)cc(NC(=O)c2cc(F)ccc2O)c1 [Compound 44, N-(3,5-dimethylphenyl)-5-fluoro-2-hydroxybenzamide] | ≤ 16 | > 200 |  |  |  |  |  |
| Cc1cc(C)cc(NC(=O)c2cc(Cl)cc(Cl)c2O)c1 [Compound 59, 3,5-dichloro-N-(3,5-dimethylphenyl)-2-hydroxybenzamide] | ≤ 16 | > 200 |  |  |  |  |  |
| O=C(Nc1ccc(Br)cc1)c1cc(Cl)ccc1O [Compound 37] | 2048 |  |  | 128 | 1024 |  | > 200 |
| Cc1ccc(O)c(C(=O)Nc2cc(C(F)(F)F)cc(C(F)(F)F)c2)c1 [Compound 12] | 512 | > 200 |  | ≤ 16 | 256 |  |  |
| O=C(Nc1cc(C(F)(F)F)cc(C(F)(F)F)c1)c1cc(O)ccc1O [Compound 16, N-(3,5-bis(trifluoromethyl)phenyl)-2,5-dihydroxybenzamide] | ≤ 16 | > 200 |  |  |  | essentially inactive |  |
| O=C(Nc1cc(Cl)cc(Cl)c1)c1cc(F)ccc1O [Compound 43] | 1024 | > 200 |  | 128 | 512 |  |  |
| O=C(Nc1cc(F)cc(F)c1)c1ccc(C(F)(F)F)cc1O [Compound 54, N-(3,5-difluorophenyl)-2-hydroxy-4-(trifluoromethyl)benzamide] | 1024 | 200 |  | 64 | 512 |  |  |
| O=C(Nc1cc(F)cc(F)c1)c1cc(I)ccc1O [Compound 50] | 512 | > 200 |  | 64 | 256 |  |  |
| O=C(Nc1cc(Cl)cc(Cl)c1)c1cc(Cl)cc(Cl)c1O [Compound 62] | 512 | 100 |  | 32 | 256 |  |  |
| COc1ccc(O)c(C(=O)Nc2cc(C(F)(F)F)cc(C(F)(F)F)c2)c1 [Compound 11] | 256 | > 200 |  |  |  |  |  |
| O=C(Nc1cc(Br)cc(Br)c1)c1ccc(C(F)(F)F)cc1O [Compound 56] | 2048 | > 200 |  | 256 | 1024 |  |  |
| Cc1cc(C)cc(NC(=O)c2cccc(Cl)c2O)c1 [Compound 58, 3-chloro-N-(3,5-dimethylphenyl)-2-hydroxybenzamide] | ≤ 16 | > 200 |  |  |  |  |  |
| O=C(Nc1cc(C(F)(F)F)cc(C(F)(F)F)c1)c1cccc(O)c1 [Compound 7, N-(3,5-bis(trifluoromethyl)phenyl)-3-hydroxybenzamide] |  | > 200 | devoid of activity |  |  |  |  |
| O=C(Nc1ccc(F)cc1Br)c1cc(Cl)ccc1O [Compound 33] | 128 | > 200 |  |  |  |  |  |
